Each compound was assayed against human APJ receptor (Homo sapiens (Human), UniProt P35414) (assay: biochemical). Conditions: [35S]GTPγS binding, CHO membranes expressing human APJ receptor; read-out: Activity hAPJ SPA EC50 IP.
Type: biochemical
Experimental: The human APJ receptor was cloned by polymerase chain reaction and the gene encoding the receptor was subcloned in pFLAG-CMV™-3 expression vector (Sigma, Saint Louis, Mo. USA) in-house at Amgen. A GTPγS binding assay was performed on membranes prepared from CHO cells stably expressing human APJ receptor. The optimum experimental conditions for the concentrations of GDP, MgCl2, and NaCl in the assay buffer were initially determined. […] Incubation was at RT for 90 min and the microplate was read using a ViewLux™ ultra HTS Microplate Imager (PerkinElmer, Inc.).

Chain of human APJ receptor (P35414 whole entry): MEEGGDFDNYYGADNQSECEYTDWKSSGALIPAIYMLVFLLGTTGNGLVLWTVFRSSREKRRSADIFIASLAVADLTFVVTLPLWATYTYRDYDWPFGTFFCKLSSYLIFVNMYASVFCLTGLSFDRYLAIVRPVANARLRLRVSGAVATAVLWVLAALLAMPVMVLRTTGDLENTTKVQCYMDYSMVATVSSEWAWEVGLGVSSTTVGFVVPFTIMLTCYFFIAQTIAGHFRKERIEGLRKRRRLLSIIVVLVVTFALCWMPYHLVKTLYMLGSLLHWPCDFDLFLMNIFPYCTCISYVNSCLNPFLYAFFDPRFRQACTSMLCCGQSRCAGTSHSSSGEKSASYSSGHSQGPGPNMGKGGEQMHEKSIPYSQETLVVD

**Q.** With `COc1cccc(OC)c1-n1c(NS(=O)(=O)[C@H](C)Cc2ccc(C#N)cn2)nnc1-c1nc(C)cs1` (single isomer, unassigned) [Example 12.0, (2R)-1-(5-Cyano-2-pyridinyl)-N-(4-(2,6-dimethoxyphenyl)-5-(4-methyl-1,3-thiazol-2-yl)-4H-1,2,4-triazol-3-yl)-2-propanesulfonamide or (2S)-1-(5-cyano-2-pyridinyl)-N-(4-(2,6-dimethoxyphenyl)-5-(4-methyl-1,3-thiazol-2-yl)-4H-1,2,4-triazol-3-yl)-2-propanesulfonamide] as the compound, how does the EC50 read?
**A.** 9.4 nM

**Q.** Which EC50 does the source give for `COCC[C@@H]([C@H](C)c1ncc(F)cn1)S(=O)(=O)Nc1nnc(-c2nc(C)cs2)n1-c1c(OC)cccc1OC` (single isomer, unassigned) [Example 19.0] here?
**A.** 6.3 nM

**Q.** Which EC50 does the source give for `COCC[C@@H]([C@H](C)c1ncc(F)cn1)S(=O)(=O)Nc1nnc(-c2nc(C)cs2)n1-c1c(OC)cccc1OC` (single isomer, unassigned) [Example 21.0] here?
**A.** 90 nM

**Q.** Which EC50 does the source give for `COc1cccc(OC)c1-n1c(NS(=O)(=O)[C@H](C)Cc2ncc(F)cn2)nnc1-c1cnccn1` (single isomer, unassigned) [Example 29.0, (R)-N-(4-(2,6-dimethoxyphenyl)-5-(pyrazin-2-yl)-4H-1,2,4-triazol-3-yl)-1-(5-fluoropyrimidin-2-yl)propane-2-sulfonamide or (S)-N-(4-(2,6-dimethoxyphenyl)-5-(pyrazin-2-yl)-4H-1,2,4-triazol-3-yl)-1-(5-fluoropyrimidin-2-yl)propane-2-sulfonamide] here?
**A.** 47 nM

**Q.** How did the EC50 turn out when `COc1cccc(OC)c1-n1c(NS(=O)(=O)[C@H](C)Cc2ncc(F)cn2)nnc1-c1cnccn1` (single isomer, unassigned) [Example 30.0, (R)-N-(4-(2,6-dimethoxyphenyl)-5-(pyrazin-2-yl)-4H-1,2,4-triazol-3-yl)-1-(5-fluoropyrimidin-2-yl)propane-2-sulfonamide or (S)-N-(4-(2,6-dimethoxyphenyl)-5-(pyrazin-2-yl)-4H-1,2,4-triazol-3-yl)-1-(5-fluoropyrimidin-2-yl)propane-2-sulfonamide] was run?
**A.** 350 nM

**Q.** Which EC50 does the source give for `COc1cccc(OC)c1-n1c(NS(=O)(=O)[C@@H](C)Cc2ncc(F)cn2)nnc1-c1cccnn1` (single isomer, unassigned) [Example 32.0, (2S)-N-(4-(2,6-dimethoxyphenyl)-5-(3-pyridazinyl)-4H-1,2,4-triazol-3-yl)-1-(5-fluoro-2-pyrimidinyl)-2-propanesulfonamide or (2R)-N-(4-(2,6-dimethoxyphenyl)-5-(3-pyridazinyl)-4H-1,2,4-triazol-3-yl)-1-(5-fluoro-2-pyrimidinyl)-2-propanesulfonamide] here?
**A.** 17 nM

**Q.** `COc1cccc(OC)c1-n1c(NS(=O)(=O)[C@@H](C)Cc2ncc(F)cn2)nnc1-c1cccnn1` (single isomer, unassigned) [Example 33.0, (2S)-N-(4-(2,6-dimethoxyphenyl)-5-(3-pyridazinyl)-4H-1,2,4-triazol-3-yl)-1-(5-fluoro-2-pyrimidinyl)-2-propanesulfonamide or (2R)-N-(4-(2,6-dimethoxyphenyl)-5-(3-pyridazinyl)-4H-1,2,4-triazol-3-yl)-1-(5-fluoro-2-pyrimidinyl)-2-propanesulfonamide] was tested. Which EC50 did it give?
**A.** 190 nM

**Q.** Which EC50 does the source give for `COc1cccc(OC)c1-n1c(NS(=O)(=O)[C@H](C)Cc2ncc(F)cn2)nnc1-c1ccn(C)c1` (single isomer, unassigned) [Example 34.0, (R)-N-(4-(2,6-dimethoxyphenyl)-5-(1-methyl-1H-pyrrol-3-yl)-4H-1,2,4-triazol-3-yl)-1-(5-fluoropyrimidin-2-yl)propane-2-sulfonamide or (S)-N-(4-(2,6-dimethoxyphenyl)-5-(1-methyl-1H-pyrrol-3-yl)-4H-1,2,4-triazol-3-yl)-1-(5-fluoropyrimidin-2-yl)propane-2-sulfonamide] here?
**A.** 4.5 nM

**Q.** For `COc1cccc(OC)c1-n1c(NS(=O)(=O)[C@H](C)Cc2ncc(F)cn2)nnc1-c1ccn(C)c1` (single isomer, unassigned) [Example 35.0, (R)-N-(4-(2,6-dimethoxyphenyl)-5-(1-methyl-1H-pyrrol-3-yl)-4H-1,2,4-triazol-3-yl)-1-(5-fluoropyrimidin-2-yl)propane-2-sulfonamide or (S)-N-(4-(2,6-dimethoxyphenyl)-5-(1-methyl-1H-pyrrol-3-yl)-4H-1,2,4-triazol-3-yl)-1-(5-fluoropyrimidin-2-yl)propane-2-sulfonamide], which EC50 is on record?
**A.** 27 nM

**Q.** How did the EC50 turn out when `COc1cccc(OC)c1-n1c(NS(=O)(=O)[C@H](C)Cc2ncc(F)cn2)nnc1-c1ccncn1` (single isomer, unassigned) [Example 38.0, (R)-N-(4-(2,6-dimethoxyphenyl)-5-(pyrimidin-4-yl)-4H-1,2,4-triazol-3-yl)-1-(5-fluoropyrimidin-2-yl)propane-2-sulfonamide or (R)-N-(4-(2,6-dimethoxyphenyl)-5-(pyrimidin-4-yl)-4H-1,2,4-triazol-3-yl)-1-(5-fluoropyrimidin-2-yl)propane-2-sulfonamide] was run?
**A.** 84 nM

**Q.** Which EC50 does the source give for `COc1cccc(OC)c1-n1c(NS(=O)(=O)[C@H](C)Cc2ncc(F)cn2)nnc1-c1ccncn1` (single isomer, unassigned) [Example 39.0, (R)-N-(4-(2,6-dimethoxyphenyl)-5-(pyrimidin-4-yl)-4H-1,2,4-triazol-3-yl)-1-(5-fluoropyrimidin-2-yl)propane-2-sulfonamide or (R)-N-(4-(2,6-dimethoxyphenyl)-5-(pyrimidin-4-yl)-4H-1,2,4-triazol-3-yl)-1-(5-fluoropyrimidin-2-yl)propane-2-sulfonamide] here?
**A.** 230 nM

**Q.** With `COc1cccc(OC)c1-n1c(NS(=O)(=O)[C@H](C)Cc2ncc(F)cn2)nnc1-c1ncccn1` (single isomer, unassigned) [Example 58.0, (R)-N-(4-(2,6-dimethoxyphenyl)-5-(pyrimidin-2-yl)-4H-1,2,4-triazol-3-yl)-1-(5-fluoropyrimidin-2-yl)propane-2-sulfonamide or (S)-N-(4-(2,6-dimethoxyphenyl)-5-(pyrimidin-2-yl)-4H-1,2,4-triazol-3-yl)-1-(5-fluoropyrimidin-2-yl)propane-2-sulfonamide] as the compound, how does the EC50 read?
**A.** 17 nM

**Q.** Which EC50 does the source give for `COc1cccc(OC)c1-n1c(NS(=O)(=O)[C@H](C)Cc2ncc(F)cn2)nnc1-c1ncccn1` (single isomer, unassigned) [Example 59.0, (R)-N-(4-(2,6-dimethoxyphenyl)-5-(pyrimidin-2-yl)-4H-1,2,4-triazol-3-yl)-1-(5-fluoropyrimidin-2-yl)propane-2-sulfonamide or (S)-N-(4-(2,6-dimethoxyphenyl)-5-(pyrimidin-2-yl)-4H-1,2,4-triazol-3-yl)-1-(5-fluoropyrimidin-2-yl)propane-2-sulfonamide] here?
**A.** 110 nM

**Q.** How did the EC50 turn out when `COc1cccc(OC)c1-n1c(NS(=O)(=O)[C@H](C)Cc2ncc(F)cn2)nnc1-c1cc(C)no1` (single isomer, unassigned) [Example 63.0, (R)-N-(4-(2,6-dimethoxyphenyl)-5-(3-methylisoxazol-5-yl)-4H-1,2,4-triazol-3-yl)-1-(5-fluoropyrimidin-2-yl)propane-2-sulfonamide or (R)-N-(4-(2,6-dimethoxyphenyl)-5-(3-methylisoxazol-5-yl)-4H-1,2,4-triazol-3-yl)-1-(5-fluoropyrimidin-2-yl)propane-2-sulfonamide] was run?
**A.** 85 nM

— patent publication US11046680B1, “Heteroaryl-substituted triazoles as APJ receptor agonists” (priority 2016, dated 2021)
